These results are taken from US12458702B2 (NATIONAL TAIWAN UNIVERSITY, priority 2022, dated 2025).

“Also recorded” adds a separate entry of the source. Where two headings read alike, the source gives them in different places.

For one series, the system named is HCT-116. Kind of series: Cytotoxicity by SRB assay in HCT-116 cells. Format: cell-based, human. The protocol:
(§1) The fraction of cell survival was calculated as follows. Survival fraction=(OD treated−blank)/(OD control−blank). […] Each experiment was repeated three times.
For orientation: The SRB assay estimates cell density from bound dye.

Series [1] has as its system CRC cell lines HCT-116 and HT-29. Kind of series: Cytotoxicity against CRC cell lines, summary over both lines (SRB assay). It counts as cell-based, human. The settings on record: for cytotoxicity against CRC cell lines, in words: HCT-116 and HT-29, with or without GSH; for IC50: read-out: IC50 in CRC cells. Here is the method: as §1
A short description of series [2]: Human plasma stability (RP-HPLC). Format: in vitro ADME. To be noted: 95% human plasma, 37° C. The protocol: To access human plasma stability, synthesized conjugates were prepared in 95% human plasma. […] The mixture was centrifuged at 13,000 rpm for 5 min. […] For compounds 30 and 31, they were dissolved in DMA and added GSH (11.2 mM or 11.2 μM) solution which was prepared in sodium acetate buffer (10 mM, pH 5.0) in the ratio of 50/40 (v/v, drug in DMA/GSH solution) for final GSH of 5 mM or 5 μM in pH 7.0, respectively. After incubation for the indicated time, samples were centrifuged to collect the clear supernatant and stored at −30° C. until analysis. RP-HPLC injections were carried out at the specified conditions, and the area of peak was integrated for further calculation.

A short description of series [3]: Stability and drug release in GSH (RP-HPLC). It counts as in vitro ADME. The protocol: […] After incubation for the indicated time, samples were centrifuged to collect the clear supernatant and stored at −30° C. until analysis. RP-HPLC injections were carried out at the specified conditions, and the area of peak was integrated for further calculation.
The next series relates to HT-29. Kind of series: Cytotoxicity by SRB assay in HT-29 cells.
Series [4] deals with orthotopic CRC mice model. Kind of series: Orthotopic AOM/DSS-induced CRC mice model, tumor area. The settings on record: SN-38 series; i.v. once every two days for two weeks; 40 mg/kg vs irinotecan 40 mg/kg. It counts as in vivo, BALB/c mice. The protocol:
Azoxymethane (AOM)-induced murine CRC model was applied to model human CRC. BALB/c mice (6 weeks of age, male) were intraperitoneally (i.p.) injected once every two weeks with AOM (10 mg/kg body weight) or the PBS vehicle. Seven days after each AOM injection, 2% dextran sulfate sodium (DSS) was given in the drinking water for four days, followed by 3 days of regular water. This cycle was repeated three times. The mice were randomly divided into eight groups (n=5), on day 60 after the first AOM treatment. […] Tumor volumes and body weights were recorded at sacrifice. The tumors were counted under a dissecting microscope, and the area covered by tumors was measured by imaging software (AxioVision LE 4.8.2.0).

Series [5] can be described thus: Body weight changes in the CRC mice model. Format: in vivo, BALB/c mice. To be noted: during treatment in CRC mice model. The protocol:
Azoxymethane (AOM)-induced murine CRC model was applied to model human CRC. BALB/c mice (6 weeks of age, male) were intraperitoneally (i.p.) injected once every two weeks with AOM (10 mg/kg body weight) or the PBS vehicle. Seven days after each AOM injection, 2% dextran sulfate sodium (DSS) was given in the drinking water for four days, followed by 3 days of regular water. This cycle was repeated three times. The mice were randomly divided into eight groups (n=5), on day 60 after the first AOM treatment. […] Irinotecan (20 mg/kg), compound 31 (20 mg/kg), and irinotecan+compound 17 (20 mg/kg of irinotecan and 14 mg/kg of compound 17) were injected i.p. q.o.d for two weeks. […] Tumor volumes and body weights were recorded at sacrifice. The tumors were counted under a dissecting microscope, and the area covered by tumors was measured by imaging software (AxioVision LE 4.8.2.0).

[6] abbreviates: 72 h, prepared in DMA, w/o GSH, read-out: IC50 HCT-116 w/o GSH.
Setting [7] is: read-out: IC50 HCT-116 5 mM GSH, 72 h, prepared in DMA, 5 mM GSH.
[8] abbreviates: read-out: IC50 HT-29 5 mM GSH, 48 h, prepared in DMA, 5 mM GSH.
[9] abbreviates: read-out: IC50 HT-29 w/o GSH, 48 h, prepared in DMA, w/o GSH.
Setting [10] is: Homo sapiens, HCT-116, read-out: IC50 HCT-116 5 mM GSH, 48 h, 5 mM GSH.
The mark [11] stands for this setting: Homo sapiens, HCT-116, read-out: IC50 HCT-116 5 mM GSH, 72 h, prepared in DMA, 5 mM GSH.
The mark [12] stands for this setting: Homo sapiens, HCT-116, 48 h, prepared in DMSO, read-out: IC50 HCT-116.
[13] abbreviates: Homo sapiens, HCT-116, 48 h, w/o GSH, read-out: IC50 HCT-116 w/o GSH.
Where [14] appears, read: Homo sapiens, HCT-116, 72 h, prepared in DMA, w/o GSH, read-out: IC50 HCT-116 w/o GSH.
[15] abbreviates: Homo sapiens, HT-29, 48 h, read-out: IC50 HT-29.
Setting [16] is: Homo sapiens, HT-29, 48 h, read-out: IC50 HT-29 5 mM GSH.
[17] abbreviates: Homo sapiens, HT-29, 48 h, read-out: IC50 HT-29 w/o GSH.
[18] abbreviates: read-out: IC50 HT-29, 48 h, prepared in DMSO.

Turning to `CCc1c2c(nc3ccc(OC(=O)OCCSSCCOCCOCCOc4ccc(O)c(C(=O)CCc5ccc(O)cc5)c4O[C@@H]4O[C@H](CO)[C@@H](O)[C@H](O)[C@H]4O)cc13)-c1cc3c(c(=O)n1C2)COC(=O)[C@]3(O)CC` [Compound 30, (S)-4,11-diethyl-4-hydroxy-3,14-dioxo-3,4,12,14-tetrahydro-1H-pyrano[3′,4′:6,7]indolizino[1,2-b]quinolin-9-yl(2-((2-(2-(2-(4-hydroxy-3-(3-(4-hydroxyphenyl)propanoyl)-2-(((2S,3R,4S,5S,6R)-3,4,5-trihydroxy-6-(hydroxymethyl)tetrahydro-2H)pyran-2-yl)oxy)phenoxy)ethoxy)ethoxy)ethyl)disulfanyl)ethyl) carbonate], the IC50 was found to be 0.00244 ± 0.00017 µM in the series with HCT-116 (setting [6]), 0.00257 ± 0.00013 µM in the series on HCT-116 (setting [7]), 0.0301 ± 0.0026 µM in the series on HT-29 (setting [8]) and 0.0396 ± 0.00345 µM in the series on HT-29 (setting [9]). Besides, the “cytotoxicity against CRC cell lines, in words” value in series [1] was “less or similar cytotoxicity”. Moreover, the “half-life in human plasma” value in series [2] was determined as 20 min. Besides, in series [3] (5 mM GSH), the “release rate of SN-38” value is recorded as “about 60%”.

Turning to `O=C(CCc1ccc(O)cc1)c1c(O)cc(OCCOCCOCCS)cc1O` [Compound 17, 1-(2,6-Dihydroxy-4-(2-(2-(2-mercaptoethoxy)ethoxy)ethoxy)phenyl)-3-(4-hydroxyphenyl)propan-1-one], the IC50 in the series with HCT-116 (setting [10]) is 15.9 ± 0.89 µM; with HCT-116 (setting [11]), 15.9 ± 0.89 µM; with HCT-116 (setting [12]) it was 15.5 ± 0.72 µM; in the series with HCT-116 (setting [13]) it was 15.5 ± 0.72 µM; with HCT-116 (setting [14]) it was 15.5 ± 0.72 µM; in series [1] (Homo sapiens, HCT-116 and HT-29, over Tables 1 to 3), 15 to 30 µM. In addition, the IC50 with HT-29 (setting [15]) was 29.1 ± 6.14 µM; with HT-29 (setting [16]) it was 24.2 ± 0.4 µM; in the series with HT-29 (setting [17]), 29.1 ± 6.14 µM.

Take `O=C(CCCSSCCOCCOCCOc1cc(O)c(C(=O)CCc2ccc(O)cc2)c(O[C@@H]2O[C@H](CO)[C@@H](O)C(O)[C@H]2O)c1)OCn1cc(F)c(=O)[nH]c1=O` (stereo partly drawn) [Compound 6, (5-fluoro-2,4-dioxo-3,4-dihydropyrimidin-1(2H)-yl)methyl 4-((2-(2-(2-(3-hydroxy-4-(3-(4-hydroxyphenyl)propanoyl)-5-(((2S,3R,5S,6R)-3,4,5-trihydroxy-6-(hydroxymethyl)tetrahydro-2H-pyran-2-yl)oxy)phenoxy)ethoxy)ethoxy)ethyl)disulfanyl)butanoate]: the IC50 was 23.8 µM in the series with HCT-116 (setting [10]), 54.9 µM in the series on HCT-116 (setting [13]), 8 ± 0.52 µM in the series with HT-29 (setting [16]) and 59.8 ± 7.93 µM with HT-29 (setting [17]). For the same molecule, the half-life at 2.5 mM in series [3] (PBS containing GSH, pH 7.4, highly reductive environments, read-out: half-lives in highly reductive environments) was below 300 min.

Consider `CCc1c2c(nc3ccc(OCc4ccc(NC(=O)[C@H](CCCNC(N)=O)NC(=O)[C@@H](NC(=O)CCCCN5C(=O)CC(SCCOCCOCCOc6cc(O)c(C(=O)CCc7ccc(O)cc7)c(O)c6)C5=O)C(C)C)cc4)cc13)-c1cc3c(c(=O)n1C2)COC(=O)[C@]3(O)CC` (some centres unmarked) [Compound 38], for which the “anti-tumor efficacy (tumor area), in words” value in series [4] is listed as “good therapeutic efficacy than irinotecan; also recorded: better anti-tumor efficacy than irinotecan”. Besides, the “body weight change, in words” value in series [5] is recorded as “did not decrease the body weight; also recorded: no significant change in the body weight”. Also, the “cytotoxicity in HT-29 cell line, in words” value in the series with HT-29 is on record as “less sensitive”. In the series with HT-29 (setting [18]), the IC50 was above 100 µM.

Turning to `O=C(CCCCCN1C(=O)CC(SCCOCCOCCOc2cc(O)c(C(=O)CCc3ccc(O)cc3)c(O)c2)C1=O)OCn1cc(F)c(=O)[nH]c1=O` (centres unmarked) [Compound 5, (5-Fluoro-2,4-dioxo-3,4-dihydropyrimidin-1(2H)-yl)methyl 6-(3-((2-(2-(2-(3,5-dihydroxy-4-(3-(4-hydroxyphenyl)propanoyl)phenoxy)ethoxy)ethoxy)ethyl)thio)-2,5-dioxopyrrolidin-1-yl)hexanoate], the IC50 with HCT-116 (setting [10]) stood at 82.8 ± 4.18 µM; in the series with HCT-116 (setting [13]), 75 ± 13.7 µM; in the series with HT-29 (setting [16]), 86.9 ± 2.9 µM; in the series with HT-29 (setting [17]), 43.7 ± 5 µM. The “cytotoxicity against CRC cell lines, in words” value in series [1] is given as “poorly cytotoxic”. Also, the “half-life in human plasma” value in series [2] was 48 min. Also, the “release of 5-FU, in words” value in series [3] (5 mM GSH, after 48 h) is “Little 5-FU was released”.

For `O=C(CCc1ccc(O)cc1)c1c(O)cc(O)cc1O[C@@H]1O[C@H](CO)[C@@H](O)[C@H](O)[C@H]1O` [Phlorizin (2), phlorizin, reference compound], the IC50 in the series with HCT-116 (setting [11]), with HCT-116 (setting [12]), in the series on HCT-116 (setting [14]), with HT-29 (setting [15]), with HT-29 (setting [16]) and in the series with HT-29 (setting [17]) was above 100 µM throughout.

Take `O=C(CCc1ccc(O)cc1)c1c(O)cc(O)cc1O` [Phloretin (3), phloretin, reference compound]: the IC50 is 77.6 ± 3.42 µM in the series on HCT-116 (setting [11]); above 100 µM with HCT-116 (setting [12]); above 100 µM with HCT-116 (setting [14]); above 100 µM in the series with HT-29 (setting [15]); above 100 µM in the series with HT-29 (setting [16]); above 100 µM in the series with HT-29 (setting [17]).

On to `O=C(CCCCCN1C(=O)CC(SCCOCCOCCOc2cc(O)c(C(=O)CCc3ccc(O)cc3)c(O[C@@H]3O[C@H](CO)[C@@H](O)C(O)[C@H]3O)c2)C1=O)OCn1cc(F)c(=O)[nH]c1=O` (stereo partly drawn) [Compound 4, (5-Fluoro-2,4-dioxo-3,4-dihydropyrimidin-1(2H)-yl)methyl 6-(3-((2-(2-(2-(3-hydroxy-4-(3-(4-hydroxyphenyl)propanoyl)-5-(((2S,3R,5S,6R)-3,4,5-trihydroxy-6-(hydroxymethyl)tetrahydro-2H-pyran-2-yl)oxy)phenoxy)ethoxy)ethoxy)ethyl)thio)-2,5-dioxopyrrolidin-1-yl)hexanoate], for which the IC50 with HCT-116 (setting [10]) is above 100 µM; in the series with HCT-116 (setting [13]), 97.4 ± 20.3 µM; with HT-29 (setting [16]), 93.6 ± 9.4 µM; with HT-29 (setting [17]) it was above 100 µM. For the same molecule, in series [1], the “cytotoxicity against CRC cell lines, in words” value is reported as “poorly cytotoxic”.

`CCc1c2c(nc3ccc(O)cc13)-c1cc3c(c(=O)n1C2)COC(=O)[C@]3(O)CC` [SN-38 (28), SN-38, reference compound]: the IC50 in the series with HCT-116 (48 h, prepared in DMSO, read-out: IC50 HCT-116) was 0.0549 ± 0.00386 µM; in the series with HCT-116 (setting [6]), 0.00237 ± 4e-05 µM; in the series with HCT-116 (setting [7]), 0.00288 ± 8e-05 µM; in series [1] (HCT-116 and HT-29, Tables 2 and 3) it was 0.002 to 0.43 µM; in the series on HT-29 (setting [8]) it was 0.0113 ± 0.00073 µM; in the series with HT-29 (setting [18]), 0.43 ± 1e-05 µM. Further, the IC50 in the series with HT-29 (setting [9]) was found to be 0.0134 ± 0.0004 µM.

As for `O=C(CCc1cn(CCOCCOCCOc2cc(O)c(C(=O)CCc3ccc(O)cc3)c(O[C@@H]3O[C@H](CO)[C@@H](O)C(O)[C@H]3O)c2)nn1)OCn1cc(F)c(=O)[nH]c1=O` (stereo partly drawn) [Compound 8, (5-Fluoro-2,4-dioxo-3,4-dihydropyrimidin-1(2H)-yl)methyl 3-(1-(2-(2-(2-(3-hydroxy-4-(3-(4-hydroxyphenyl)propanoyl)-5-(((2S,3R,5S,6R)-3,4,5-trihydroxy-6-(hydroxymethyl)tetrahydro-2H-pyran-2-yl)oxy)phenoxy)ethoxy)ethoxy)ethyl)-1H-1,2,3-triazol-4-yl)propanoate], the IC50 in the series with HCT-116 (setting [13]) and in the series on HT-29 (setting [17]) was above 100 µM each time. In series [1], the “cytotoxicity against CRC cell lines, in words” value is “poorly cytotoxic”.
